Results published in article PMC8802628, “Selective activation of PFKL suppresses the phagocytic oxidative burst” (Cell, 2021).

Columns and labels:
GSDMD = biological target: T1, GSDMD (Homo sapiens, UniProt P57764); test: TR-FRET liposome cargo release (GSDMD pore formation); type: biochemical; conditions: 10 μM
T1 sequence (P57764 1-484): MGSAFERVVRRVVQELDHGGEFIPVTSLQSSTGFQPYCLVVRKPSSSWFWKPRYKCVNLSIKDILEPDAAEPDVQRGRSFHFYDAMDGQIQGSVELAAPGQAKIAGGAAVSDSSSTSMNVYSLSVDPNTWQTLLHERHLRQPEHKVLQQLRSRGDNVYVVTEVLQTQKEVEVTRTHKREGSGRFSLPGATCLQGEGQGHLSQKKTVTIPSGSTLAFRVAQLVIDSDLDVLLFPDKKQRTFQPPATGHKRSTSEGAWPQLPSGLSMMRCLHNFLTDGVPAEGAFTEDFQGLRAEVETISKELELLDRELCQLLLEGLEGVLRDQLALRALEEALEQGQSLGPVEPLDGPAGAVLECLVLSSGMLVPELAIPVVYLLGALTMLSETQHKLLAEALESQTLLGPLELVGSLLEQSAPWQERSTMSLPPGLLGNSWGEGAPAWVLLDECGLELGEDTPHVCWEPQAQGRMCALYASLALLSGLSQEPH
Protocol: GSDMD-dependent liposome cargo release was conducted by Confluence Discovery Technologies with modifications to the procedure described previously ([Aglietti et al., 2016]). Briefly, liposomes with an encapsulated cargo of europium-chelate conjugated biotin were formed from a lipid mixture of DOPC:DOPE (1:1). 0.15 mg/mL of cargo-loaded liposomes were mixed with 0.3 μM of recombinant GSDMD and incubated with 10 μM LDC7559, 10 μM disulfiram or DMSO vehicle. 0.15 μM caspase-4 and 50 nM streptavidin-Alexa Fluor 647 were added and TR-FRET was read over 1 h using a PHERAstar FSX Microplate Reader (BMG Labtech) equipped with a TR-FRET module.

[1] = tested on: primary human monocytes and human monocytic THP-1 cells; test: GSDMD-dependent pyroptosis, LDH release; type: cell-based; conditions: induced by nigericin, cytoplasmic LPS, or cytoplasmic poly(dA-dT)
Protocol: Primary human monocytes were primed with 1 μg/mL ultrapure LPS and 1μg/mL Pam3CSK4 for 3 h. THP-1 cells were primed with 1 μg/mL Pam3CSK4 for 4 h. Primed cells (1 × 10^5) were treated for 1 h with DMSO vehicle, 5 μM LDC7559 (unless indicated otherwise), 10 μM MCC950, or 50 μM VX765, and then for 1 h with 10 μg/mL nigericin, or 25 μg/mL LPS (electroporated using the NEON electroporation system; ThermoFisher Scientific), or they were transfected over 3 h with 1 μg/mL poly(dA-dT) using lipofectamine 2000 (0.5 μL/well).
LDH released into the culture medium was measured 1-3 h post-activation using a CellTox Green Cytotoxicity assay (Promega). IL-1β secretion was measured using a MSD Cytokine Assay, 96-well multi-array Tissue Culture Kit (Meso Scale Discovery). For immunoblotting, monocytes (2 × 10^6) were treated with 10-50 μM LCD7559 or 50 μM VX765 and electroporated with 25 μg/mL LPS using the NEON electroporation system. Cells were lysed after 1 h using lysis buffer (50 mM Tris pH 7.4, 150 mM NaCl, 10% glycerol, 1% NP-40, 1 mM MgCl and 1X Roche cOmplete protease inhibitor cocktail) and protein concentration was determined via BCA protein assay (Peirce). Antibodies for immunoblotting were GSDMD (L60, Cell Signaling Technologies), cleaved GSDMD-Asp275 (E7H9G, Cell Signaling Technologies) and GAPDH (14C10, Cell Signaling Technologies).

Question: How did the “liposome permeabilization by GSDMD pore-forming fragment” value (GSDMD) turn out when COc1ccccc1-c1cc2n(n1)Cc1ccc(NC(C)=O)cc1OC2 [LDC7559, reference compound] was run?
Answer: nor did it prevent the GSDMD pore-forming fragment from permeabilizing liposomes

Question: What about the “GSDMD-dependent pyroptosis (LDH release)” value [1] of the same compound?
Answer: did not alter GSDMD-dependent pyroptosis
